The results in this text go back to patent publication US20160207928A1, “NOVEL COMPOUNDS FOR THE TREATMENT OF CANCER” (BAYER PHARMA AKTIENGESELLSCHAFT, priority 2013, published 2016).

Assay [1] relates to HeLa human cervical tumor cells. In words: HeLa cell proliferation assay (crystal violet staining). The format is cell-based. The settings on record: 96 h, 4 days incubation, read-out: Inhibition of cell proliferation, cell Line: HeLa IC50. The procedure:
Cultivated tumor cells (MCF7, hormone dependent human mammary carcinoma cells, ATCC HTB22; NCI-H460, human non-small cell lung carcinoma cells, ATCC HTB-177; DU 145, hormone-independent human prostate carcinoma cells, ATCC HTB-81; HeLa-MaTu, human cervical carcinoma cells, EPO-GmbH, Berlin; HeLa-MaTu-ADR, multidrug-resistant human cervical carcinoma cells, EPO-GmbH, Berlin; HeLa human cervical tumor cells, ATCC CCL-2; B16F10 mouse melanoma cells, ATCC CRL-6475) were plated at a density of 5000 cells/well (MCF7, DU145, HeLa-MaTu-ADR), 3000 cells/well (NCI-H460, HeLa-MaTu, HeLa), or 1000 cells/well (B16F10) in a 96-well multititer plate in 200 μl of their respective growth medium supplemented 10% fetal calf serum. After 24 hours, the cells of one plate (zero-point plate) were stained with crystal violet (see below), while the medium of the other plates was replaced by fresh culture medium (200 μl), to which the test substances were added in various concentrations (0 μM, as well as in the range of 0.01-30 μM; the final concentration of the solvent dimethyl sulfoxide was 0.5%). The cells were incubated for 4 days in the presence of test substances. Cell proliferation was determined by staining the cells with crystal violet: the cells were fixed by adding 20 μl/measuring point of an 11% glutaric aldehyde solution for 15 minutes at room temperature. After three washing cycles of the fixed cells with water, the plates were dried at room temperature. The cells were stained by adding 100 μl/measuring point of a 0.1% crystal violet solution (pH 3.0). After three washing cycles of the stained cells with water, the plates were dried at room temperature. The dye was dissolved by adding 100 μl/measuring point of a 10% acetic acid solution. The extinction was determined by photometry at a wavelength of 595 nm. The change of cell number, in percent, was calculated by normalization of the measured values to the extinction values of the zero-point plate (=0%) and the extinction of the untreated (0 μm) cells (=100%). The IC50 values were determined by means of a 4 parameter fit using the company's own software.
The compounds of the present invention are characterized by the following IC50 values, determined in a HeLa cell proliferation assay (as described above): […]

The target in assay [2] is T1, human kinase Mps-1 (Homo sapiens, UniProt P33981).
T1 construct: N-terminally GST-tagged human full length recombinant Mps-1 kinase; purchased Invitrogen, Karslruhe, Germany PV4071
T1 sequence (P33981 1-857): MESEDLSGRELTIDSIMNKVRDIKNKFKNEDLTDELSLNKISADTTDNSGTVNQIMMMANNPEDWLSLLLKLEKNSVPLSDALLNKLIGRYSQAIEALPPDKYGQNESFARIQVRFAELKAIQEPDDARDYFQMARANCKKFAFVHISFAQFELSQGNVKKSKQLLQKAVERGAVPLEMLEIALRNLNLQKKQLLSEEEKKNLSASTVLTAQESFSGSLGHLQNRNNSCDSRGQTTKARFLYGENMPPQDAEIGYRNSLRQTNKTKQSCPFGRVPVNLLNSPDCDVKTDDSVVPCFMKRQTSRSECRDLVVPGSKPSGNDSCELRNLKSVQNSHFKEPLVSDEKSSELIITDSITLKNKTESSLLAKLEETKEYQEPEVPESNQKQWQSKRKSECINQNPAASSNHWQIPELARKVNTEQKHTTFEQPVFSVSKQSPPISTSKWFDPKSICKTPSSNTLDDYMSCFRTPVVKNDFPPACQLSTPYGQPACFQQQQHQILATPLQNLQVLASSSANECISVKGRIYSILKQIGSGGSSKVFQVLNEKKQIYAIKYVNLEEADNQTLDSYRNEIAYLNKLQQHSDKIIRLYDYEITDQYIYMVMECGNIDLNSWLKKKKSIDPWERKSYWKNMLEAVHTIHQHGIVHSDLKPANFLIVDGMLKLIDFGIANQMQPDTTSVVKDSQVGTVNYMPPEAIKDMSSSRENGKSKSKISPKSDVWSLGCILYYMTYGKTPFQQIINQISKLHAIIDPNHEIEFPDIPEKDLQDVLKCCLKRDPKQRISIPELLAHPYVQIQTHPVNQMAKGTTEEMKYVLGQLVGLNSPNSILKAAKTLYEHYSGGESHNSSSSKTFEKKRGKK
The assay can be described thus: Mps-1 kinase assay (TR-FRET, 10 μM ATP). The format is biochemical. The following applies: N-terminally GST-tagged human full length recombinant Mps-1, read-out: Mps-1 Inhibition, IC50 (Assay with 10 μM ATP). The procedure:
The human kinase Mps-1 phosphorylates a biotinylated substrate peptide. Detection of the phosphorylated product is achieved by time-resolved fluorescence resonance energy transfer (TR-FRET) from Europium-labelled anti-phospho-Serine/Threonine antibody as donor to streptavidin Labelled with cross-linked allophycocyanin (SA-XLent) as acceptor. Compounds are tested for their inhibition of the kinase activity.
N-terminally GST-tagged human full length recombinant Mps-1 kinase (purchased from Invitrogen, Karslruhe, Germany, cat. no PV4071) was used. As substrate for the kinase reaction a biotinylated peptide of the amino-acid sequence PWDPDDADITEILG (C-terminus in amide form, purchased from Biosynthan GmbH, Berlin) was used.
For the assay 50 nl of a 100-fold concentrated solution of the test compound in DMSO was pipetted into a black low volume 384 well microtiter plate (Greiner Bio-One, Frickenhausen, Germany), 2 μl of a solution of Mps-1 in assay buffer [0.1 mM sodium-ortho-vanadate, 10 mM MgCl2, 2 mM DTT, 25 mM Hepes pH 7.7, 0.05% BSA, 0.001% Pluronic F-127] were added and the mixture was incubated for 15 min at 22° C. to allow pre-binding of the test compounds to Mps-1 before the start of the kinase reaction. Then the kinase reaction was started by the addition of 3 μl of a solution of […] (ATP, 16.7 μM=>final conc. in the 5 μl assay volume is 10 μM) and peptide substrate (1.67 μM=>final conc. in the 5 μl assay volume is 1 μM) in assay buffer and the resulting mixture was incubated for a reaction time of 60 min at 22° C. The concentration of Mps-1 in the assay was adjusted to the activity of the enzyme lot and was chosen appropriate to have the assay in the linear range, typical enzyme concentrations were in the range of about 1 nM (final conc. in the 5 μl assay volume). The reaction was stopped by the addition of 3 μl of a solution of HTRF detection reagents (100 mM Hepes pH 7.4, 0.1% BSA, 40 mM EDTA, 140 nM Streptavidin-XLent [#61GSTXLB, Fa. Cis Biointernational, Marcoule, France], 1.5 nM anti-phospho(Ser/Thr)-Europium-antibody [#AD0180, PerkinElmer LAS, Rodgau-Jügesheim, Germany].
The resulting mixture was incubated 1 h at 22° C. to allow the binding of the phosphorylated peptide to the anti-phospho(Ser/Thr)-Europium-antibody. Subsequently the amount of phosphorylated substrate was evaluated by measurement of the resonance energy transfer from the Europium-labelled anti-phospho(Ser/Thr) antibody to the Streptavidin-XLent. Therefore, the fluorescence emissions at 620 nm and 665 nm after excitation at 350 nm was measured in a Viewlux TR-FRET reader (PerkinElmer LAS, Rodgau-Jügesheim, Germany). The “blank-corrected normalized ratio” (a Viewlux specific readout, similar to the traditional ratio of the emissions at 665 nm and at 622 nm, in which blank and Eu-donor crosstalk are subtracted from the 665 nm signal before the ratio is calculated) was taken as the measure for the amount of phosphorylated substrate. The data were normalised (enzyme reaction without inhibitor=0% inhibition, all other assay components but no enzyme=100% inhibition).

Consider `COc1cc(S(C)(=O)=O)ccc1Nc1nc2cc(-c3ccc(NC(=O)[C@H](C)c4ccc(F)cc4)cc3)ccn2n1` [Example 5.1, (2R)-2-(4-fluorophenyl)-N-[4-(2-{[2-methoxy-4-(methylsulfonyl)phenyl]amino}[1,2,4]triazolo[1,5-a]pyridin-7-yl)phenyl]propanamide], for which the results for the IC50 in assay [1] and in assay [2] were 118 nM and no more than 1 nM, respectively. For `COc1cc(C(=O)N2CC(F)C2)ccc1Nc1nc2cc(-c3ccc(NC(=O)[C@H](C)c4ccc(F)cc4)cc3)ccn2n1` [Example 5.2, (2R)—N-{4-[2-({4-[(3-fluoroazetidin-1-yl)carbonyl]-2-methoxyphenyl}amino)[1,2,4]triazolo[1,5-a]pyridin-7-yl]phenyl}-2-(4-fluorophenyl)propanamide], the IC50 in assay [1] is 24 nM; in assay [2] it was no more than 1 nM.

With `C[C@@H](C(=O)Nc1ccc(-c2ccn3nc(Nc4ccc(C(=O)N5CC(F)C5)cc4OCC(F)(F)F)nc3c2)cc1)c1ccc(F)cc1` [Example 5.3, (2R)—N-{4-[2-({4-[(3-fluoroazetidin-1-yl)carbonyl]-2-(2,2,2-trifluoroethoxy)phenyl}amino)[1,2,4]triazolo[1,5-a]pyridin-7-yl]phenyl}-2-(4-fluorophenyl)propanamide], the IC50 in assay [1] was 13 nM; in assay [2] it was no more than 1 nM. With `C[C@@H](C(=O)Nc1ccc(-c2ccn3nc(Nc4ccc(S(C)(=O)=O)cc4OCC(F)(F)F)nc3c2)cc1)c1ccc(F)cc1` [Example 5.5, (2R)-2-(4-fluorophenyl)-N-[4-(2-{[4-(methylsulfonyl)-2-(2,2,2-trifluoroethoxy)phenyl]amino}[1,2,4]triazolo[1,5-a]pyridin-7-yl)phenyl]propanamide], the IC50 in assay [1] is 82 nM; in assay [2] it was no more than 1 nM. For `COc1cc(C(=O)N2CCC2)ccc1Nc1nc2cc(-c3ccc(NC(=O)[C@H](C)c4ccc(F)cc4)cc3)ccn2n1` [Example 5.6, (2R)—N-[4-(2-{[4-(azetidin-1-ylcarbonyl)-2-methoxyphenyl]amino}[1,2,4]triazolo[1,5-a]pyridin-7-yl)phenyl]-2-(4-fluorophenyl)propanamide], in that order: 57 nM and no more than 1 nM. As for `COc1cc(S(C)(=O)=O)ccc1Nc1cn2nc(-c3ccc(NC(=O)[C@H](C)c4ccc(F)cc4)cc3)ccc2n1` [Example 6.1, (2R)-2-(4-fluorophenyl)-N-[4-(2-{[2-methoxy-4-(methylsulfonyl)phenyl]amino}imidazo[1,2-b]pyridazin-6-yl)phenyl]propanamide], the IC50 is 501 nM in assay [1] and no more than 1 nM in assay [2]. Consider `COc1cc(S(C)(=O)=O)cnc1Nc1cn2cc(-c3ccc(NC(=O)[C@H](C)c4ccc(F)cc4)cc3)ccc2n1` [Example 7.1, (2R)-2-(4-fluorophenyl)-N-[4-(2-{[3-methoxy-5-(methylsulfonyl)pyridin-2-yl]amino}imidazo[1,2-a]pyridin-6-yl)phenyl]propanamide], for which the IC50 in assay [2] is no more than 1 nM.
